In ChEMBL document CHEMBL1817544, “Carbonic anhydrase inhibitors. Synthesis, molecular structures, and inhibition of the human cytosolic isozymes I and II and transmembrane isozymes IX, XII (cancer-associated) and XIV with novel 3-pyridinesulfonamide derivatives” (Eur J Med Chem, 2011):

Key:
Carbonic anhydrase 9 = Carbonic anhydrase 9 (Homo sapiens, UniProt Q16790)
Carbonic anhydrase 1 = Carbonic anhydrase 1 (Homo sapiens, UniProt P00915)
Chain of Carbonic anhydrase 1 (P00915 whole entry): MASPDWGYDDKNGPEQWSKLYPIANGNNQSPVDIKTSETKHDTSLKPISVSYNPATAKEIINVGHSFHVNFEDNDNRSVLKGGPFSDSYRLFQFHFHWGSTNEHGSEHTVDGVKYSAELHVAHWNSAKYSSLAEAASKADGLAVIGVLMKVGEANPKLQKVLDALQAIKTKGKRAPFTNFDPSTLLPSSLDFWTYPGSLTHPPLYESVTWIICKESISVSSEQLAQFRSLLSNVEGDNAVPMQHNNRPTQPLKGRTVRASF

Structure (SMILES)	Ki (Carbonic anhydrase 9)	Ki (Carbonic anhydrase 1)
Cc1cc[n+](-c2ccncc2S(N)(=O)=O)cc1	10.1 nM	–
NS(=O)(=O)c1cnccc1-n1ccccc1=O	10.2 nM	–
NS(=O)(=O)c1cnccc1-[n+]1ccccc1	7.6 nM	–
COC1=CC=CC2N1c1ccncc1S(=O)(=O)N2c1ccncc1S(N)(=O)=O (centres undefined)	8.7 nM	–
CN(C)c1cc[n+](-c2ccncc2S(N)(=O)=O)cc1	9 nM	–
Cc1cccc[n+]1-c1ccncc1S(N)(=O)=O	7.4 nM	–
COC1=C(S(N)(=O)=O)C2NS(=O)(=O)c3cnccc3N2C=C1 (centres undefined)	13.5 nM	–
NS(=O)(=O)c1cnccc1Oc1ccncc1S(N)(=O)=O	9 nM	251000 nM
